Experimental data as given in PubChem BioAssay AID2060625 (Molecular Pharmacology Branch, DTP, NCI, 2025).
pIC50: −log10 of the molar value.

Tested on: 186277-243-T-J2-PDC spheroids with HUVEC/MSC, viability
Assay: Anticancer human tumor 186277-243-T-J2-PDC patient-derived colon adenocarcinoma cell line growth inhibition [CLK]
Conditions: for pIC50: curve of first compound; for viability, T/C: stronger effect = lower value
How it was run: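 Patient-derived tumor cells grown as complex spheroids with HUVEC endothelial cells and mesenchymal stem cells, treated with drug combinations. Concentrations descend in half-log steps from near clinical Cmax, or from 10 microM if Cmax unknown.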

[1] = second compound 0.0316 µM, first compound 0.0316 µM
[2] = second compound 0.0316 µM, first compound 0.1 µM
[3] = second compound 0.0316 µM, first compound 0.316 µM
[4] = second compound 0.0316 µM, first compound 1 µM
[5] = second compound 0.0316 µM, first compound 3.16 µM
[6] = second compound 0.0316 µM, first compound 10 µM
[7] = second compound 0.1 µM, first compound 0.0316 µM
[8] = second compound 0.1 µM, first compound 0.1 µM
[9] = second compound 0.1 µM, first compound 0.316 µM
[10] = second compound 0.1 µM, first compound 1 µM
[11] = second compound 0.1 µM, first compound 3.16 µM
[12] = second compound 0.1 µM, first compound 10 µM
[13] = second compound 0.316 µM, first compound 0.0316 µM
[14] = second compound 0.316 µM, first compound 0.1 µM
[15] = second compound 0.316 µM, first compound 0.316 µM
[16] = second compound 0.316 µM, first compound 1 µM
[17] = second compound 0.316 µM, first compound 3.16 µM
[18] = second compound 0.316 µM, first compound 10 µM
[19] = second compound 1 µM, first compound 0.0316 µM
[20] = second compound 1 µM, first compound 0.1 µM
[21] = second compound 1 µM, first compound 0.316 µM
[22] = second compound 1 µM, first compound 1 µM
[23] = second compound 1 µM, first compound 3.16 µM
[24] = second compound 1 µM, first compound 10 µM
[25] = second compound 3.16 µM, first compound 0.0316 µM
[26] = second compound 3.16 µM, first compound 0.1 µM
[27] = second compound 3.16 µM, first compound 0.316 µM
[28] = second compound 3.16 µM, first compound 1 µM
[29] = second compound 3.16 µM, first compound 3.16 µM
[30] = second compound 3.16 µM, first compound 10 µM
[31] = second compound 10 µM, first compound 0.0316 µM
[32] = second compound 10 µM, first compound 0.1 µM
[33] = second compound 10 µM, first compound 0.316 µM
[34] = second compound 10 µM, first compound 1 µM
[35] = second compound 10 µM, first compound 3.16 µM
[36] = second compound 10 µM, first compound 10 µM
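Also: compound exposure lasted seven days before readout.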
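For viability, T/C in this document: 100% = DMSO vehicle control wells.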

Structure (SMILES): Nc1ccn(C2OC(CO)C(O)C2(F)F)c(=O)n1 (stereo unspecified) + CN1CCN(c2cc(C(=O)Nc3cc4cc(-c5cnn(C)c5)ccc4cn3)ccn2)CC1
- pIC50 (second compound 0.0316 µM): > 7.50
- pIC50 (second compound 0.1 µM): > 7.50
- pIC50 (second compound 0.316 µM): > 7.50
- pIC50 (second compound 1 µM): > 7.50
- pIC50 (second compound 3.16 µM): > 7.50
- pIC50 (second compound 10 µM): > 7.50
- viability, T/C [1]: 14%
- viability, T/C [2]: 14.4%
- viability, T/C [3]: 13.2%
- viability, T/C [4]: 15.4%
- viability, T/C [5]: 15.7%
- viability, T/C [6]: 15%
- viability, T/C [7]: 14.1%
- viability, T/C [8]: 15.4%
- viability, T/C [9]: 13.7%
- viability, T/C [10]: 15.4%
- viability, T/C [11]: 13.6%
- viability, T/C [12]: 13.5%
- viability, T/C [13]: 14.8%
- viability, T/C [14]: 12.4%
- viability, T/C [15]: 13.9%
- viability, T/C [16]: 12%
- viability, T/C [17]: 8.4%
- viability, T/C [18]: 7.19%
- viability, T/C [19]: 1.75%
- viability, T/C [20]: 1.77%
- viability, T/C [21]: 1.48%
- viability, T/C [22]: 0.16%
- viability, T/C [23]: 0.64%
- viability, T/C [24]: 0.64%
- viability, T/C [25]: 1.77%
- viability, T/C [26]: 1.46%
- viability, T/C [27]: 0.93%
- viability, T/C [28]: 4.16%
- viability, T/C [29]: 2.01%
- viability, T/C [30]: 0.57%
- viability, T/C [31]: 0.82%
- viability, T/C [32]: 0.83%
- viability, T/C [33]: 0.9%
- viability, T/C [34]: 1.08%
- viability, T/C [35]: 0.95%
- viability, T/C [36]: 0.6%

Structure (SMILES): O=C(c1cc(Cc2n[nH]c(=O)c3ccccc23)ccc1F)N1CCN(C(=O)C2CC2)CC1 + CN1CCN(c2cc(C(=O)Nc3cc4cc(-c5cnn(C)c5)ccc4cn3)ccn2)CC1
- pIC50 (second compound 0.0316 µM): < 5.00
- pIC50 (second compound 0.1 µM): < 5.00
- pIC50 (second compound 0.316 µM): > 7.50
- pIC50 (second compound 1 µM): > 7.50
- pIC50 (second compound 3.16 µM): > 7.50
- pIC50 (second compound 10 µM): > 7.50
- viability, T/C [1]: 95.8%
- viability, T/C [2]: 97.4%
- viability, T/C [3]: 97.2%
- viability, T/C [4]: 103%
- viability, T/C [5]: 102%
- viability, T/C [6]: 93.6%
- viability, T/C [7]: 82.5%
- viability, T/C [8]: 82.8%
- viability, T/C [9]: 82.7%
- viability, T/C [10]: 73.9%
- viability, T/C [11]: 73.2%
- viability, T/C [12]: 69%
- viability, T/C [13]: 24.6%
- viability, T/C [14]: 25.8%
- viability, T/C [15]: 23.1%
- viability, T/C [16]: 24.8%
- viability, T/C [17]: 24.2%
- viability, T/C [18]: 21.7%
- viability, T/C [19]: 0.33%
- viability, T/C [20]: 0.74%
- viability, T/C [21]: 2.04%
- viability, T/C [22]: 0.29%
- viability, T/C [23]: 1.71%
- viability, T/C [24]: 0.32%
- viability, T/C [25]: 2.76%
- viability, T/C [26]: 1.64%
- viability, T/C [27]: 1.3%
- viability, T/C [28]: 1.29%
- viability, T/C [29]: 1.16%
- viability, T/C [30]: 1.05%
- viability, T/C [31]: 1.59%
- viability, T/C [32]: 0.89%
- viability, T/C [33]: 0.83%
- viability, T/C [34]: 0.77%
- viability, T/C [35]: 1.1%
- viability, T/C [36]: 0.59%

Structure (SMILES): O=c1[nH]cc(F)c(=O)[nH]1 + CN1CCN(c2cc(C(=O)Nc3cc4cc(-c5cnn(C)c5)ccc4cn3)ccn2)CC1
- pIC50 (second compound 0.0316 µM): < 5.00
- pIC50 (second compound 0.1 µM): 5.21
- pIC50 (second compound 0.316 µM): > 7.50
- pIC50 (second compound 1 µM): > 7.50
- pIC50 (second compound 3.16 µM): > 7.50
- pIC50 (second compound 10 µM): > 7.50
- viability, T/C [1]: 86.8%
- viability, T/C [2]: 85.2%
- viability, T/C [3]: 101%
- viability, T/C [4]: 86.2%
- viability, T/C [5]: 73%
- viability, T/C [6]: 56.3%
- viability, T/C [7]: 81.4%
- viability, T/C [8]: 76.6%
- viability, T/C [9]: 87%
- viability, T/C [10]: 82.6%
- viability, T/C [11]: 62.6%
- viability, T/C [12]: 40.8%
- viability, T/C [13]: 21.7%
- viability, T/C [14]: 19.2%
- viability, T/C [15]: 22.6%
- viability, T/C [16]: 23.1%
- viability, T/C [17]: 23.5%
- viability, T/C [18]: 21%
- viability, T/C [19]: 1.33%
- viability, T/C [20]: 0.66%
- viability, T/C [21]: 0.91%
- viability, T/C [22]: 1.78%
- viability, T/C [23]: 1.34%
- viability, T/C [24]: 1.32%
- viability, T/C [25]: 3.16%
- viability, T/C [26]: 0.66%
- viability, T/C [27]: 1.53%
- viability, T/C [28]: 0.93%
- viability, T/C [29]: 2.49%
- viability, T/C [30]: 0.81%
- viability, T/C [31]: 3.05%
- viability, T/C [32]: 0.66%
- viability, T/C [33]: 0.92%
- viability, T/C [34]: 1.07%
- viability, T/C [35]: 0.96%
- viability, T/C [36]: 0.38%
